Test results as given in patent publication US8192962B2, “Processes for detecting toxic substances” (Daikin Industries, Ltd., priority 2001, dated 2012).

Test system: Energy system protein genes
Assay: DNA chip mRNA expression in yeast, energy system protein genes (Table 4)
Type: cell-based, Saccharomyces cerevisiae S288C
In short: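 Expression change after 2 h toxicant exposure (growth-inhibiting, sub-lethal) of log-phase S. cerevisiae S288C at 25° C. Oligo-dT-purified mRNA was labeled with Cy3-dUTP or Cy5-dUTP and hybridized >12 h at 65° C. to a genome-wide chip; ratio of scanned fluorescence to control.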

Structure (SMILES): [Cl][Pb][Cl] [(4), PbCl2]
- The level of expressed mRNA in the presence of chemical substance/The level of expressed mRNA in the absence of chemical substance (yeast gene YAL060W): 2.7
- The level of expressed mRNA in the presence of chemical substance/The level of expressed mRNA in the absence of chemical substance (yeast gene YBL058W, cells incubated two hours with the chemical substance): 1.1
- The level of expressed mRNA in the presence of chemical substance/The level of expressed mRNA in the absence of chemical substance (yeast gene YBL099W, cells incubated two hours with the chemical substance): 1.4
- The level of expressed mRNA in the presence of chemical substance/The level of expressed mRNA in the absence of chemical substance (yeast gene YBR001C, cells incubated two hours with the chemical substance): 1.4
- The level of expressed mRNA in the presence of chemical substance/The level of expressed mRNA in the absence of chemical substance (yeast gene YBR185C, cells incubated two hours with the chemical substance): 2.0
- The level of expressed mRNA in the presence of chemical substance/The level of expressed mRNA in the absence of chemical substance (yeast gene YBR221C, cells incubated two hours with the chemical substance): 1.5
- The level of expressed mRNA in the presence of chemical substance/The level of expressed mRNA in the absence of chemical substance (yeast gene YCL040W): 2.0
- The level of expressed mRNA in the presence of chemical substance/The level of expressed mRNA in the absence of chemical substance (yeast gene YCR012W): 1.2
- The level of expressed mRNA in the presence of chemical substance/The level of expressed mRNA in the absence of chemical substance (yeast gene YCR046C, cells incubated two hours with the chemical substance): 1.6
- The level of expressed mRNA in the presence of chemical substance/The level of expressed mRNA in the absence of chemical substance (yeast gene YCR105W, cells incubated two hours with the chemical substance): 3.0
- The level of expressed mRNA in the presence of chemical substance/The level of expressed mRNA in the absence of chemical substance (yeast gene YDL021W): 3.7
- The level of expressed mRNA in the presence of chemical substance/The level of expressed mRNA in the absence of chemical substance (yeast gene YDL067C, cells incubated two hours with the chemical substance): 1.3
- The level of expressed mRNA in the presence of chemical substance/The level of expressed mRNA in the absence of chemical substance (yeast gene YDL078C, cells incubated two hours with the chemical substance): 0.8
- The level of expressed mRNA in the presence of chemical substance/The level of expressed mRNA in the absence of chemical substance (yeast gene YDL107W, cells incubated two hours with the chemical substance): 2.2
- The level of expressed mRNA in the presence of chemical substance/The level of expressed mRNA in the absence of chemical substance (yeast gene YDL174C): 1.3
- The level of expressed mRNA in the presence of chemical substance/The level of expressed mRNA in the absence of chemical substance (yeast gene YDL181W, cells incubated two hours with the chemical substance): 1.8
- The level of expressed mRNA in the presence of chemical substance/The level of expressed mRNA in the absence of chemical substance (yeast gene YDR001C): 1.0
- The level of expressed mRNA in the presence of chemical substance/The level of expressed mRNA in the absence of chemical substance (yeast gene YDR050C, cells incubated two hours with the chemical substance): 1.8
- The level of expressed mRNA in the presence of chemical substance/The level of expressed mRNA in the absence of chemical substance (yeast gene YDR079W, cells incubated two hours with the chemical substance): 1.1
- The level of expressed mRNA in the presence of chemical substance/The level of expressed mRNA in the absence of chemical substance (yeast gene YDR178W, cells incubated two hours with the chemical substance): 2.2
- The level of expressed mRNA in the presence of chemical substance/The level of expressed mRNA in the absence of chemical substance (yeast gene YDR231C): 1.5
- The level of expressed mRNA in the presence of chemical substance/The level of expressed mRNA in the absence of chemical substance (yeast gene YDR298C, cells incubated two hours with the chemical substance): 1.3
- The level of expressed mRNA in the presence of chemical substance/The level of expressed mRNA in the absence of chemical substance (yeast gene YDR377W, cells incubated two hours with the chemical substance): 1.4
- The level of expressed mRNA in the presence of chemical substance/The level of expressed mRNA in the absence of chemical substance (yeast gene YDR529C, cells incubated two hours with the chemical substance): 3.2
- The level of expressed mRNA in the presence of chemical substance/The level of expressed mRNA in the absence of chemical substance (yeast gene YEL024W, cells incubated two hours with the chemical substance): 1.1
- The level of expressed mRNA in the presence of chemical substance/The level of expressed mRNA in the absence of chemical substance (yeast gene YEL039C, cells incubated two hours with the chemical substance): 5.1
- The level of expressed mRNA in the presence of chemical substance/The level of expressed mRNA in the absence of chemical substance (yeast gene YER178W): 1.0
- The level of expressed mRNA in the presence of chemical substance/The level of expressed mRNA in the absence of chemical substance (yeast gene YFL057C): 1.8
- The level of expressed mRNA in the presence of chemical substance/The level of expressed mRNA in the absence of chemical substance (yeast gene YFR053C): 2.2
- The level of expressed mRNA in the presence of chemical substance/The level of expressed mRNA in the absence of chemical substance (yeast gene YGL018C, cells incubated two hours with the chemical substance): 3.0
- The level of expressed mRNA in the presence of chemical substance/The level of expressed mRNA in the absence of chemical substance (yeast gene YGL062W): 0.6
- The level of expressed mRNA in the presence of chemical substance/The level of expressed mRNA in the absence of chemical substance (yeast gene YGL187C, cells incubated two hours with the chemical substance): 1.8
- The level of expressed mRNA in the presence of chemical substance/The level of expressed mRNA in the absence of chemical substance (yeast gene YGL191W, cells incubated two hours with the chemical substance): 1.8
- The level of expressed mRNA in the presence of chemical substance/The level of expressed mRNA in the absence of chemical substance (yeast gene YGL205W, cells incubated two hours with the chemical substance): 0.8
- The level of expressed mRNA in the presence of chemical substance/The level of expressed mRNA in the absence of chemical substance (yeast gene YGL256W, cells incubated two hours with the chemical substance): 1.3
- The level of expressed mRNA in the presence of chemical substance/The level of expressed mRNA in the absence of chemical substance (yeast gene YGR043C): 7.9
- The level of expressed mRNA in the presence of chemical substance/The level of expressed mRNA in the absence of chemical substance (yeast gene YGR062C, cells incubated two hours with the chemical substance, 25° C., YPD medium): 1.4
- The level of expressed mRNA in the presence of chemical substance/The level of expressed mRNA in the absence of chemical substance (yeast gene YGR087C, cells incubated two hours with the chemical substance): 0.6
- The level of expressed mRNA in the presence of chemical substance/The level of expressed mRNA in the absence of chemical substance (yeast gene YGR174C, cells incubated two hours with the chemical substance): 2.4
- The level of expressed mRNA in the presence of chemical substance/The level of expressed mRNA in the absence of chemical substance (yeast gene YGR192C): 1.0
- The level of expressed mRNA in the presence of chemical substance/The level of expressed mRNA in the absence of chemical substance (yeast gene YGR244C): 1.6
- The level of expressed mRNA in the presence of chemical substance/The level of expressed mRNA in the absence of chemical substance (yeast gene YGR254W): 1.3
- The level of expressed mRNA in the presence of chemical substance/The level of expressed mRNA in the absence of chemical substance (yeast gene YHR179W): 0.7
- The level of expressed mRNA in the presence of chemical substance/The level of expressed mRNA in the absence of chemical substance (yeast gene YIL160C): 3.5
- The level of expressed mRNA in the presence of chemical substance/The level of expressed mRNA in the absence of chemical substance (yeast gene YIR031C, cells incubated two hours with the chemical substance): 0.6
- The level of expressed mRNA in the presence of chemical substance/The level of expressed mRNA in the absence of chemical substance (yeast gene YJL052W): 1.8
- The level of expressed mRNA in the presence of chemical substance/The level of expressed mRNA in the absence of chemical substance (yeast gene YJL121C, cells incubated two hours with the chemical substance): 0.8
- The level of expressed mRNA in the presence of chemical substance/The level of expressed mRNA in the absence of chemical substance (yeast gene YJL166W, cells incubated two hours with the chemical substance): 1.3
- The level of expressed mRNA in the presence of chemical substance/The level of expressed mRNA in the absence of chemical substance (yeast gene YJL216C, cells incubated two hours with the chemical substance): 0.9
- The level of expressed mRNA in the presence of chemical substance/The level of expressed mRNA in the absence of chemical substance (yeast gene YJR009C): 1.0
